Laboratory results reported in patent US8399214B2 (Evonik Degussa GmbH, priority 2005, dated 2013).
Where “and” joins values, the source holds several entries; their conditions need not be identical. Equal entries are not always repeated. Where two headings read alike, the source gives them in different places.

Key:
[1] = system: C. glutamicum OM246C (ΔmetH, ΔmetE); conditions: for Optical densities at 600 nm: OM246C, 24 hours at 30° C.
Excerpt: (§1) Other possible delivery systems include synthetic oils, organic solvents, chloro-carbons, fluoro-carbons, or chloro-fluoro-carbons.

[2] = system: C. glutamicum OM158 (ΔmetF, ΔmetY); conditions: DMDS 0.2%, XAD4, 60 hours at 30° C.
Description: (§7) A test tube experiment was performed with M2014 derivatives that contain different combinations of deletions of metY, metB, and metF. […] The inoculum was approximately 5×10^3 cells per tube. Cells were grown at 30° C. in a platform shaker for 60 hours, and cell densities were measured at OD600.

[3] = system: C. glutamicum M2014; assay: Test tube growth in methionine-free medium with mineral oil as DMDS delivery system; conditions: for Optical densities at 600 nm: 24 hours at 30° C.
Excerpt: as §1

[4] = system: C. glutamicum M2014 (parent); assay: Test tube growth in methionine-free medium, DMDS added directly; conditions: for Optical densities at 600 nm: M2014, 36 hours at 30° C.
Excerpt: (§2) M2014 was transformed with plasmid pOM86 (FIG. 9) (SEQ ID NO:8) to yield a “Campbell in” strain. The “Campbell in” strain was then “Cambelled out” to yield a “Campbell out” strain named OM63.

[5] = system: C. glutamicum OM246C (ΔmetH, ΔmetE); type: cell-based; conditions: 24 hours at 30° C.
Excerpt: as §1

[6] = system: E. coli CGSC 3592 (metF64); assay: Growth on methionine free agar with DMDS in a centre well; type: cell-based; conditions: 50 microliters DMDS in well, 30° C.
Description: (§3) The selection was for resistance to kanamycin sulfate at 25 mg/L on rich medium […] agar).

[7] = system: E. coli RY714B (metE::Tn10, ΔmetH); assay: as above; type: cell-based; conditions: 50 microliters DMDS in well, 30° C.
Description: as §3

[8] = system: OM101 (ΔmetB,ΔmetF); assay: Lawn growth on methionine-free agar plates with liquid or gaseous DMDS; type: cell-based, C. glutamicum; conditions: for killing zone: 48-60 hours
Description: Control plates received the lawn of cells, but no DMDS. The plates were placed together in a sealed polypropylene plastic box that was slightly bigger than the stack of plates and incubated at 30° C. for 48-60 hours. […] Normally, when a required nutrient is placed in the middle of a lawn that is auxotrophic for the nutrient, a gradient of growth is seen, with the most rapid growth occurring closest to the nutrient.
The plates were incubated at 30° C. enclosed in an airtight plastic box. […] This could be accomplished by evaporating or boiling DMDS and pumping the DMDS vapor into the fermentation vessel, or by bubbling air or oxygen through liquid DMDS on its route to the fermentation vessel.

[9] = system: C. glutamicum OM246C (ΔmetE, ΔmetH); type: cell-based; conditions: XAD4, 24 hours at 30° C.
Description: (§4) To each test tube 100 μl of a sterile suspension of XAD4 in water (50% v/v) was added.

[10] = system: C. glutamicum OM101C (ΔmetF, ΔmetB); type: cell-based; conditions: XAD4, 24 hours at 30° C.
Description: as §4

[11] = system: C. glutamicum M2014; assay: Shake flask study in molasses medium with XAD4, amino acid production with DMDS; type: cell-based; conditions: strain 2014, 80 μl DMDS (0.4% v/v), XAD4, 30° C.
Description: (§5) Samples were taken from the medium and assayed for amino acid content. […] (AGILENT). A pre-column derivatization of the sample with ortho-phthalaldehyde allowed the quantification of produced amino acids after separation on a Hypersil AA-column (AGILENT).
(§6) A shake flask experiment was performed where OM246C was compared to M2014. […] Thus, the production of methionine occurs from the conversion of O-acetyl-homoserine directly to methionine, bypassing homocysteine.

[12] = system: C. glutamicum OM246C; assay: as above; type: cell-based; conditions: 80 μl DMDS (0.4% v/v), XAD4, 30° C.
Description: as §5, §6

[13] = system: C. glutamicum OM101 (ΔmetF, ΔmetB); conditions: DMDS 0.2%, XAD4, 60 hours at 30° C.
Description: as §7

[14] = system: C. glutamicum OM63 (ΔmetF); type: cell-based; conditions: 36 hours at 30° C.
Excerpt: as §2

[15] = system: C. glutamicum OM174 (ΔmetF, ΔmetB, ΔmetY); conditions: DMDS 0.2%, XAD4, 60 hours at 30° C.
Description: as §7

[16] = system: C. glutamicum M2014; assay: Test tube growth in methionine-free medium with canola oil as DMDS delivery system; type: cell-based; conditions: MF + Canola Oil + 0.2% DMDS, 24 hours at 30° C.
Excerpt: as §1

[17] = system: C. glutamicum M2014; assay: Test tube growth in methionine-free medium with Amberlite XAD4 as DMDS delivery system
Description: To this end, test tube experiments using 5 ml of medium were performed on OM63 and M2014.
as §4

## CSSC [DMDS, dimethyl disulfide]
[1]; DMDS in mineral oil, strain printed as OM63
  maximum amount of DMDS that allowed cell growth: 0.4%
[1]; MF + Mineral Oil + 0.2% DMDS
  Optical densities at 600 nm: 1.1 and 1.6
[1]; MF + Mineral Oil + 0.4% DMDS
  Optical densities at 600 nm: 1.2 and 1.5
[1]; MF + Mineral Oil + 0.8% DMDS
  Optical densities at 600 nm: 0.0
[1]; MF + Mineral Oil + 1.2% DMDS
  Optical densities at 600 nm: 0.0
[2]
  OD600: 0.0
[3]; DMDS in mineral oil
  maximum amount of DMDS that allowed cell growth: 0.8%
[3]; MF + Mineral Oil + 0.2% DMDS
  Optical densities at 600 nm: 1.4 and 1.2
[3]; MF + Mineral Oil + 0.4% DMDS
  Optical densities at 600 nm: 1.5 and 1.3
[3]; MF + Mineral Oil + 0.8% DMDS
  Optical densities at 600 nm: 1.4 and 1.7
[3]; MF + Mineral Oil + 1.2% DMDS
  Optical densities at 600 nm: 0.0
[4]; MF + 0.02% DMDS
  Optical densities at 600 nm: 5.5
[4]; MF + 0.04% DMDS
  Optical densities at 600 nm: 5.3
[4]; MF + 0.06% DMDS
  Optical densities at 600 nm: 6.6
[4]; MF + 0.08% DMDS
  Optical densities at 600 nm: 0.0
[4]; MF + 0.1% DMDS
  Optical densities at 600 nm: 0.0
[4]; added directly to liquid cultures
  amount of DMDS tolerated by the cells: less than 0.06%
[4]; added directly to liquid cultures of C. glutamicum
  amount at which DMDS is toxic: greater than 0.06%
[5]; MF + Canola Oil + 0.2% DMDS
  Optical densities at 600 nm: 1.9 and 1.7
[5]; MF + Canola Oil + 0.4% DMDS
  Optical densities at 600 nm: 1.1 and 1.3
[5]; MF + Canola Oil + 0.8% DMDS
  Optical densities at 600 nm: 0.0
[6]; CGSC 3592 transformed with empty vector pCLIK
  growth on methionine free agar with DMDS: neither strain transformed with empty vector pCLIK grew
[6]; CGSC 3592 transformed with pH309 or pH357 (metY)
  growth on methionine free agar with DMDS: grew on the plates
[7]; RY714B transformed with empty vector pCLIK
  growth on methionine free agar with DMDS: neither strain transformed with empty vector pCLIK grew
[7]; RY714B transformed with pH309 or pH357 (metY)
  growth on methionine free agar with DMDS: grew on the plates
[8]; 50 μl liquid DMDS in polypropylene cap, reaches cells only through gaseous state, 30° C., two days
  growth of OM101 lawn: complete bacterial lawn
[8]; 50 μl liquid DMDS placed into a well in the agar, 30° C.
  killing zone: no killing zone
[8]; 50 μl liquid DMDS spotted directly on the lawn, 30° C.
  killing zone: approximately 30 mm
[8]; gas state
  toxicity of DMDS in the gas state to OM101: not toxic
[9]; DMDS 0.1%
  Optical densities at 600 nm: 4.3 and 4.5
[9]; DMDS 0.2%
  Optical densities at 600 nm: 4.2 and 3.8
[9]; DMDS 0.3%
  Optical densities at 600 nm: 3.3 and 3.6
[9]; DMDS 0.4%
  Optical densities at 600 nm: 3.6 and 3.2
[9]; DMDS 0.5%
  Optical densities at 600 nm: 3.1 and 2.4
[10]; DMDS 0.1%
  Optical densities at 600 nm: 2.5 and 2.7
[10]; DMDS 0.2%
  Optical densities at 600 nm: 3.1 and 3.9
[10]; DMDS 0.3%
  Optical densities at 600 nm: 1.6 and 0.8
[10]; DMDS 0.4%
  Optical densities at 600 nm: 0.05 and 0.03
[10]; DMDS 0.5%
  Optical densities at 600 nm: 0.02 and 0.01
[11]
  Gly + Hse: 1.0 g/L and 1.4 g/L
  Ile: 0.0 g/L
  Lys: 2.5 g/L
  OD600: 38 and 30
  O—Ac-hse: 4.3 g/L and 3.6 g/L
[12]
  Gly + Hse: 1.7 g/L and 1.3 g/L
  Ile: 0.0 g/L
  Lys: 3.2 g/L and 3.4 g/L
  OD600: 32 and 35
  O—Ac-hse: 4.6 g/L and 4.3 g/L
[13]
  OD600: 2.4 and 1.8
[14]; MF + 0.02% DMDS
  Optical densities at 600 nm: 5.4
[14]; MF + 0.04% DMDS
  Optical densities at 600 nm: 5.9
[14]; MF + 0.06% DMDS
  Optical densities at 600 nm: 5.2
[14]; MF + 0.08% DMDS
  Optical densities at 600 nm: 0.2
[14]; MF + 0.1% DMDS
  Optical densities at 600 nm: 0.0
[15]
  OD600: 0.0
[16]
  Optical densities at 600 nm: 1.5 and 1.4
[17]; M2014, DMDS 0.1%, XAD4, 24 hours at 30° C.
  Optical densities at 600 nm: 4.4 and 4.3
[17]; M2014, DMDS 0.1%, XAD4, 42 hours at 30° C.
  Optical densities at 600 nm: 6.6
[17]; M2014, DMDS 0.2%, XAD4, 24 hours at 30° C.
  Optical densities at 600 nm: 4.0 and 4.2
[17]; M2014, DMDS 0.2%, XAD4, 42 hours at 30° C.
  Optical densities at 600 nm: 6.9
[17]; M2014, DMDS 0.2%, XAD4, 60 hours at 30° C.
  OD600: 4.5 and 3.6
[17]; M2014, DMDS 0.3%, XAD4, 24 hours at 30° C.
  Optical densities at 600 nm: 3.8 and 3.5
[17]; M2014, DMDS 0.3%, XAD4, 42 hours at 30° C.
  Optical densities at 600 nm: 7.3
[17]; M2014, DMDS 0.4%, XAD4, 24 hours at 30° C.
  Optical densities at 600 nm: 1.3 and 2.3
[17]; M2014, DMDS 0.4%, XAD4, 42 hours at 30° C.
  Optical densities at 600 nm: 7.3
[17]; M2014, DMDS 0.5%, XAD4, 42 hours at 30° C.
  Optical densities at 600 nm: 5.5
[17]; M2014, DMDS with Amberlite XAD4
  maximum amount of DMDS that allowed cell growth: 0.4%
[17]; in the presence of Amberlite XAD4 versus direct addition
  increase of the amount of DMDS that can be added before toxicity is observed: 5 fold
